According to EPA's ToxValDB 9.5:

What was measured:
[1] = tested on: Rattus norvegicus; conditions: subchronic; duration: 90 days; oral; diet; M/F; CD; Deaths + Body Weight Changes: decrease + Food Consumption: decrease + Hematology: RBC decrease, HGB decrease, HCT decrease, WBC decrease, …
[2] = tested on: Rattus norvegicus; conditions: short-term, duration: 28 days, oral, gavage, Sprague-Dawley

Q: Which NOAEL [1] does the source give for O=S(=O)(O)C(F)(F)C(F)(F)C(F)(F)C(F)(F)C(F)(F)C(F)(F)C(F)(F)C(F)(F)F [Perfluorooctanesulfonic acid] here?
A: The NOAEL was under 2.88 mg/kg-day.

Q: And the LOEL ([2]; F, Clinical chemistry_Alanine aminotransferase)?
A: The LOEL was 2.5 mg/kg-day.

Q: What about the LOEL ([2]; F, Clinical chemistry_Albumin) of the same molecule?
A: The LOEL was 2.5 mg/kg-day.

Q: And the LOEL ([2]; F, Clinical chemistry_Albumin/globulin ratio)?
A: The LOEL was 2.5 mg/kg-day.

Q: And the LOEL ([2]; F, Clinical chemistry_Alkaline phosphatase)?
A: Its LOEL is 2.5 mg/kg-day.

Q: What about the NOEL ([2]; F, Clinical chemistry_Aspartate aminotransferase) of the same molecule?
A: Its NOEL is 5 mg/kg-day.

Q: What about the LOEL ([2]; F, Clinical chemistry_Cholesterol) of the same molecule?
A: Its LOEL is 5 mg/kg-day.

Q: What about the LOEL ([2]; F, Clinical chemistry_Direct bilirubin) of the same molecule?
A: The LOEL was 2.5 mg/kg-day.

Q: And the LOEL ([2]; F, Clinical chemistry_Free thyroxine)?
A: The LOEL was 0.312 mg/kg-day.

Q: And the NOEL ([2]; F, Clinical chemistry_Globulin)?
A: The NOEL was 5 mg/kg-day.

Q: And the NOEL ([2]; F, Clinical chemistry_Sorbitol dehydrogenase)?
A: Its NOEL is 5 mg/kg-day.

Q: What about the NOEL ([2]; F, Clinical chemistry_Testosterone) of the same molecule?
A: Its NOEL is 5 mg/kg-day.

Q: What about the NOEL ([2]; F, Clinical chemistry_Thyroid stimulating hormone) of the same molecule?
A: Its NOEL is 5 mg/kg-day.

Q: What about the LOEL ([2]; F, Clinical chemistry_Total bile acids) of the same molecule?
A: Its LOEL is 2.5 mg/kg-day.

Q: And the LOEL ([2]; F, Clinical chemistry_Total bilirubin)?
A: Its LOEL is 5 mg/kg-day.

Q: And the LOEL ([2]; F, Clinical chemistry_Total protein)?
A: Its LOEL is 5 mg/kg-day.

Q: What about the LOEL ([2]; F, Clinical chemistry_Total thyroxine) of the same molecule?
A: The LOEL was 0.312 mg/kg-day.

Q: And the LOEL ([2]; F, Clinical chemistry_Total triiodothyronine)?
A: Its LOEL is 0.625 mg/kg-day.

Q: And the LOEL ([2]; F, Clinical chemistry_Triglycerides)?
A: The LOEL was 2.5 mg/kg-day.

Q: What about the LOEL ([2]; F, Gene expression_Acox1) of the same molecule?
A: Its LOEL is 0.312 mg/kg-day.

Q: What about the LOEL ([2]; F, Gene expression_Cyp2b1) of the same molecule?
A: The LOEL was 0.312 mg/kg-day.

Q: And the LOEL ([2]; F, Gene expression_Cyp2b2)?
A: Its LOEL is 0.312 mg/kg-day.

Q: And the LOEL ([2]; F, Gene expression_Cyp4a1)?
A: Its LOEL is 0.312 mg/kg-day.

Q: What about the NOEL ([2]; F, Hematology_Erythrocytes) of the same molecule?
A: Its NOEL is 5 mg/kg-day.

Q: And the NOEL ([2]; F, Hematology_Hematocrit)?
A: The NOEL was 5 mg/kg-day.

Q: What about the NOEL ([2]; F, Hematology_Hemoglobin) of the same molecule?
A: Its NOEL is 5 mg/kg-day.

Q: And the NOEL ([2]; F, Hematology_Leukocytes)?
A: Its NOEL is 5 mg/kg-day.

Q: And the LOEL ([2]; F, Hematology_Reticulocytes)?
A: Its LOEL is 2.5 mg/kg-day.

Q: And the NOEL ([2]; F, Hematology_S. neutrophils)?
A: Its NOEL is 5 mg/kg-day.

Q: And the LOEL ([2]; F, Nonneoplastic effects_Bone marrow - Hypocellularity)?
A: Its LOEL is 2.5 mg/kg-day.

Q: And the NOEL ([2]; F, Nonneoplastic effects_Kidney - Papilla, necrosis)?
A: Its NOEL is 5 mg/kg-day.

Q: And the LOEL ([2]; F, Nonneoplastic effects_Liver - Hepatocyte, cytoplasmic alteration)?
A: Its LOEL is 1.25 mg/kg-day.

Q: And the LOEL ([2]; F, Nonneoplastic effects_Liver - Hepatocyte, hypertrophy)?
A: Its LOEL is 1.25 mg/kg-day.

Q: What about the NOEL ([2]; F, Nonneoplastic effects_Liver - Hepatocyte, vacuolization cytoplasmic) of the same molecule?
A: Its NOEL is 5 mg/kg-day.

Q: What about the NOEL ([2]; F, Nonneoplastic effects_Liver - Necrosis) of the same molecule?
A: The NOEL was 5 mg/kg-day.

Q: What about the NOEL ([2]; F, Nonneoplastic effects_Nose - Olfactory epithelium, degeneration) of the same molecule?
A: The NOEL was 5 mg/kg-day.

Q: What about the NOEL ([2]; F, Nonneoplastic effects_Nose - Olfactory epithelium, hyperplasia) of the same molecule?
A: The NOEL was 5 mg/kg-day.

Q: And the NOEL ([2]; F, Nonneoplastic effects_Nose - Olfactory epithelium, inflammation, suppurative)?
A: Its NOEL is 5 mg/kg-day.

Q: What about the NOEL ([2]; F, Nonneoplastic effects_Nose - Olfactory epithelium, necrosis) of the same molecule?
A: The NOEL was 5 mg/kg-day.

Q: And the LOEL ([2]; F, Nonneoplastic effects_Spleen - Extramedullary hematopoiesis, decreased)?
A: Its LOEL is 1.25 mg/kg-day.

Q: What about the NOEL ([2]; F, Nonneoplastic effects_Stomach, forestomach - Epithelium, hyperplasia) of the same molecule?
A: The NOEL was 5 mg/kg-day.

Q: And the NOEL ([2]; F, Nonneoplastic effects_Thymus - Atrophy)?
A: The NOEL was 5 mg/kg-day.

Q: What about the LOEL ([2]; F, Organ weights_Heart - Absolute) of the same molecule?
A: The LOEL was 5 mg/kg-day.

Q: And the LOEL ([2]; F, Organ weights_Heart - Relative)?
A: Its LOEL is 5 mg/kg-day.

Q: And the LOEL ([2]; F, Organ weights_Liver - Absolute)?
A: Its LOEL is 0.312 mg/kg-day.

Q: And the LOEL ([2]; F, Organ weights_Liver - Relative)?
A: Its LOEL is 0.312 mg/kg-day.

Q: And the NOEL ([2]; F, Organ weights_Lung - Absolute)?
A: The NOEL was 5 mg/kg-day.

Q: What about the LOEL ([2]; F, Organ weights_Lung - Relative) of the same molecule?
A: Its LOEL is 1.25 mg/kg-day.

Q: And the NOEL ([2]; F, Organ weights_R. adrenal gland - Absolute)?
A: Its NOEL is 5 mg/kg-day.

Q: And the NOEL ([2]; F, Organ weights_R. adrenal gland - Relative)?
A: The NOEL was 5 mg/kg-day.

Q: What about the NOEL ([2]; F, Organ weights_R. kidney - Absolute) of the same molecule?
A: The NOEL was 5 mg/kg-day.

Q: And the NOEL ([2]; F, Organ weights_R. kidney - Relative)?
A: The NOEL was 5 mg/kg-day.

Q: What about the NOEL ([2]; F, Organ weights_Spleen - Absolute) of the same molecule?
A: Its NOEL is 5 mg/kg-day.

Q: What about the NOEL ([2]; F, Organ weights_Spleen - Relative) of the same molecule?
A: Its NOEL is 5 mg/kg-day.

Q: What about the LOEL ([2]; F, Organ weights_Thymus - Absolute) of the same molecule?
A: Its LOEL is 1.25 mg/kg-day.

Q: What about the NOEL ([2]; F, Organ weights_Thymus - Relative) of the same molecule?
A: The NOEL was 5 mg/kg-day.

Q: And the NOEL ([2]; F, Survival rates)?
A: Its NOEL is 5 mg/kg-day.

Q: And the LOEL ([2]; M, Clinical chemistry_Alanine aminotransferase)?
A: The LOEL was 0.625 mg/kg-day.

Q: What about the LOEL ([2]; M, Clinical chemistry_Albumin) of the same molecule?
A: Its LOEL is 5 mg/kg-day.

Q: And the LOEL ([2]; M, Clinical chemistry_Albumin/globulin ratio)?
A: Its LOEL is 5 mg/kg-day.

Q: What about the LOEL ([2]; M, Clinical chemistry_Alkaline phosphatase) of the same molecule?
A: Its LOEL is 0.625 mg/kg-day.

Q: And the LOEL ([2]; M, Clinical chemistry_Aspartate aminotransferase)?
A: The LOEL was 0.625 mg/kg-day.

Q: And the LOEL ([2]; M, Clinical chemistry_Cholesterol)?
A: Its LOEL is 0.312 mg/kg-day.

Q: And the LOEL ([2]; M, Clinical chemistry_Direct bilirubin)?
A: The LOEL was 5 mg/kg-day.

Q: What about the LOEL ([2]; M, Clinical chemistry_Free thyroxine) of the same molecule?
A: Its LOEL is 0.312 mg/kg-day.

Q: What about the LOEL ([2]; M, Clinical chemistry_Globulin) of the same molecule?
A: Its LOEL is 5 mg/kg-day.

Q: What about the NOEL ([2]; M, Clinical chemistry_Sorbitol dehydrogenase) of the same molecule?
A: The NOEL was 5 mg/kg-day.

Q: And the NOEL ([2]; M, Clinical chemistry_Testosterone)?
A: Its NOEL is 5 mg/kg-day.

Q: And the NOEL ([2]; M, Clinical chemistry_Thyroid stimulating hormone)?
A: The NOEL was 5 mg/kg-day.
